Experimental data published in patent publication US20250268903A1, “RXFP1 AGONISTS” (BRISTOL-MYERS SQUIBB COMPANY, priority 2021, published 2025).

Target: T1, human RXFP1 (Homo sapiens, UniProt Q9HBX9)
T1 construct: expressed in transfected cells
T1 sequence (Q9HBX9 1-757): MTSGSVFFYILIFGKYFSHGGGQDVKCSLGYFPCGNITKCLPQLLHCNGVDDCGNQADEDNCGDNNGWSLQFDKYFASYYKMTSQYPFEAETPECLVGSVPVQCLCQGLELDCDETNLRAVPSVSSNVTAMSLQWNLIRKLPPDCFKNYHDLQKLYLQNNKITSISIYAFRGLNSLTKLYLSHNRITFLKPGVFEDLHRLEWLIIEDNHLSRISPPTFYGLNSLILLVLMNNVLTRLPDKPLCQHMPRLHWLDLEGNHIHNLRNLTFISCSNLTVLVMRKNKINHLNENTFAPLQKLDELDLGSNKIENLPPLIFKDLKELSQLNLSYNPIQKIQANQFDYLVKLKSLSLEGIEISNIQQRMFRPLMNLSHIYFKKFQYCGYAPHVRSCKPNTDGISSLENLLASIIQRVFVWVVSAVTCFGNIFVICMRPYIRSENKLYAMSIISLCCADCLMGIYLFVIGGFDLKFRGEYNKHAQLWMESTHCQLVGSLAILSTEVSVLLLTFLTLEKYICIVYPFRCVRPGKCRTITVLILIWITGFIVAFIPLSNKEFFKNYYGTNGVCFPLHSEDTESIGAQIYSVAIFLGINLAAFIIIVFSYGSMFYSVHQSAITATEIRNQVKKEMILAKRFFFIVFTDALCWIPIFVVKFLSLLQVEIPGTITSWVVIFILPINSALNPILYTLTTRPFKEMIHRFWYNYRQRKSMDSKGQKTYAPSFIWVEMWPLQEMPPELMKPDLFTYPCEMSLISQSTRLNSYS
Test: hRXFP1 HEK293 cAMP assay (HTRF)
Assay type: cell-based
Details: HEK293 cells stably expressing human RXFP1, 30 min at room temperature
Procedure, shortened: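 Potency and activity come from a four-parameter logistic fit of cAMP against compound concentration, tested from 0.010 nM up to 50 μM. The assay uses HEK293 cells stably expressing human RXFP1, incubated 30 min at ambient temperature with phosphodiesterase inhibitor IBMX present.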

Structure (SMILES) | EC50
COc1ccc(CCC(C)(C)O)cc1C(=O)NC1C2CCC(/C2=C/C2CCOC2)[C@@H]1C(=O)Nc1ccc(F)c(C(F)(F)F)c1 (stereo partly drawn) [Example 169, (7Z)-N-[4-fluoro-3-(trifluoromethyl)phe-nyl]-3-[5-(3-hydroxy-3-methylbutyl)-2-methoxybenzamido]-7-[(oxolan-3-yl)methylidene]bicy-clo[2.2.1]heptane-2-carboxamide] | 102 nM
COc1ccc(CCC(C)(C)O)cc1C(=O)NC1C2CCC(/C2=C/CC2CCC2)[C@@H]1C(=O)Nc1ccc(F)c(C(F)(F)F)c1 (stereo partly drawn) [Example 174, (7Z)-7-(2-cyclobutylethylidene)-N-[4-fluoro-3-(trifluoromethyl)phe-nyl]-3-[5-(3-hydroxy-3-methylbutyl)-2-methoxybenzamido] bicyclo[2.2.1]heptane-2-carboxamide] | 66 nM
COc1ccc(CCC(C)(C)O)cc1C(=O)NC1C2CCC(/C2=C/CC(F)F)[C@@H]1C(=O)Nc1ccc(F)c(C(F)(F)F)c1 (stereo partly drawn) [Example 175, (7Z)-7-(3,3-difluoropropylidene)-N-[4-fluoro-3-(trifluoromethyl)phe-nyl]-3-[5-(3-hydroxy-3-methylbutyl)-2-methoxybenzamido] bicyclo[2.2.1]heptane-2-carboxamide] | 311 nM
COc1ccc(C2CCC2)cc1C(=O)N[C@H]1[C@@H](C(=O)Nc2ccc(F)c(C(F)(F)F)c2)[C@H]2CC[C@@H]1/C2=C\C(F)(F)F [Example 176, (1R,2S,3R,4R,Z)-3-(5-cyclobutyl-2-methoxybenzamido)-N-(4-fluoro-3-(trifluoromethyl)phenyl)-7-(2,2,2-trifluoroethylidene) bicyclo[2.2.1]heptane-2-carboxamide] | 738 nM
COc1ccc(C2CCC(C(F)(F)F)CC2)cc1C(=O)NC1C2CCC(/C2=C/C(F)(F)F)[C@@H]1C(=O)Nc1ccc(F)c(C(F)(F)F)c1 (stereo partly drawn) [Example 177, (7Z)-N-[4-fluoro-3-(trifluoromethyl)phe-nyl]-3-{2-methoxy-5-[4-(trifluoromethyl)cyclo-hexyl]benzamido}-7-(2,2,2-trifluoroethylidene)bi-cyclo[2.2.1]heptane-2-carboxamide] | 298 nM
COc1ccc(CC2CCOCC2)cc1C(=O)NC1C2CCC(/C2=C/C(F)(F)F)[C@@H]1C(=O)Nc1ccc(F)c(C(F)(F)F)c1 (stereo partly drawn) [Example 178, (7Z)-N-[4-fluoro-3-(trifluoromethyl)phe-nyl]-3-{2-methoxy-5-[(oxan-4-yl)methyl]benzamido}-7-(2,2,2-trifluoroethylidene)bi-cyclo[2.2.1]heptane-2-carboxamide] | 355 nM
COc1ccc(CCc2ccc(F)cc2)cc1C(=O)NC1C2CCC(/C2=C/C(F)(F)F)[C@@H]1C(=O)Nc1ccc(F)c(C(F)(F)F)c1 (stereo partly drawn) [Example 179, (7Z)-N-[4-fluoro-3-(trifluoromethyl)phe-nyl]-3-{5-[2-(4-fluorophenyl)ethyl]-2-methoxybenzamido}-7-(2,2,2-trifluoroethylidene)bi-cyclo[2.2.1]heptane-2-carboxamide] | 267 nM
COc1ccc(CCC2CCOCC2)cc1C(=O)NC1C2CCC(/C2=C/C(F)(F)F)[C@@H]1C(=O)Nc1ccc(F)c(C(F)(F)F)c1 (stereo partly drawn) [Example 180, (7Z)-N-[4-fluoro-3-(trifluoromethyl)phe-nyl]-3-{2-methoxy-5-[2-(oxan-4-yl)ethyl]benzamido}-7-(2,2,2-trifluoroethylidene)bi-cyclo[2.2.1]heptane-2-carboxamide] | 168 nM
COc1ccc(CCCCCC#N)cc1C(=O)NC1C2CCC(/C2=C/C(F)(F)F)[C@@H]1C(=O)Nc1ccc(F)c(C(F)(F)F)c1 (stereo partly drawn) [Example 181, (7Z)-3-[5-(5-cyanopentyl)-2-methoxybenzamido]-N-[4-fluoro-3-(trifluoromethyl)phe-nyl]-7-(2,2,2-trifluoroethylidene)bi-cyclo[2.2.1]heptane-2-carboxamide] | 103 nM
COc1ccc(CCN2CCOC2=O)cc1C(=O)NC1C2CCC(/C2=C/C(F)(F)F)[C@@H]1C(=O)Nc1ccc(F)c(C(F)(F)F)c1 (stereo partly drawn) [Example 182, (7Z)-N-[4-fluoro-3-(trifluoromethyl)phe-nyl]-3-{2-methoxy-5-[2-(2-oxo-1,3-oxazolidin-3-yl)ethyl]benzamido}-7-(2,2,2-trifluoroethylidene)bi-cyclo[2.2.1]heptane-2-carboxamide] | 139 nM
COc1ccc(C[C@@H]2CCC(=O)N2)cc1C(=O)NC1C2CCC(/C2=C/C(F)(F)F)[C@@H]1C(=O)Nc1ccc(F)c(C(F)(F)F)c1 (stereo partly drawn) [Example 183, (7Z)-N-[4-fluoro-3-(trifluoromethyl)phe-nyl]-3-(2-methoxy-5-{[(2S)-5-oxopyrrolidin-2-yl]methyl}benzamido)-7-(2,2,2-trifluoroethylidene)bi-cyclo[2.2.1]heptane-2-carboxamide] | 850 nM
COc1ccc(CCCCCCC#N)cc1C(=O)NC1C2CCC(/C2=C/C(F)(F)F)[C@@H]1C(=O)Nc1ccc(F)c(C(F)(F)F)c1 (stereo partly drawn) [Example 184, (7Z)-3-[5-(6-cyanohexyl)-2-methoxybenzamido]-N-[4-fluoro-3-(trifluoromethyl)phe-nyl]-7-(2,2,2-trifluoroethylidene)bi-cyclo[2.2.1]heptane-2-carboxamide] | 252 nM

Other lines, results leading:

EC50 | Structure (SMILES)
603 nM | COc1ccc(CCCC(F)(F)F)cc1C(=O)NC1C2CCC(/C2=C/C(F)(F)F)[C@@H]1C(=O)Nc1ccc(F)c(C(F)(F)F)c1 (stereo partly drawn) [Example 185, (7Z)-N-[4-fluoro-3-(trifluoromethyl)phe-nyl]-3-[2-methoxy-5-(4,4,4-trifluorobutyl)benza-mido]-7-(2,2,2-trifluoroethylidene)bi-cyclo[2.2.1]heptane-2-carboxamide]
280 nM | COc1ccc(CCCCC(F)(F)F)cc1C(=O)NC1C2CCC(/C2=C/C(F)(F)F)[C@@H]1C(=O)Nc1ccc(F)c(C(F)(F)F)c1 (stereo partly drawn) [Example 186, (7Z)-N-[4-fluoro-3-(trifluoromethyl)phe-nyl]-3-[2-methoxy-5-(5,5,5-trifluoropentyl)benza-mido]-7-(2,2,2-trifluoroethylidene)bi-cyclo[2.2.1]heptane-2-carboxamide]
385 nM | COc1ccc(CCC(F)(F)F)cc1C(=O)NC1C2CCC(/C2=C/C(F)(F)F)[C@@H]1C(=O)Nc1ccc(F)c(C(F)(F)F)c1 (stereo partly drawn) [Example 187, (7Z)-N-[4-fluoro-3-(trifluoromethyl)phe-nyl]-3-[2-methoxy-5-(3,3,3-trifluoropropyl)benz-amido]-7-(2,2,2-trifluoroethylidene)bi-cyclo[2.2.1]heptane-2-carboxamide]
56 nM | COc1ccc(CCc2ccc(OC)c(C(=O)NC3C4CCC(/C4=C/C(F)(F)F)[C@@H]3C(=O)Nc3ccc(F)c(C(F)(F)F)c3)c2)cc1 (stereo partly drawn) [Example 188, (7Z)-N-[4-fluoro-3-(trifluoromethyl)phe-nyl]-3-{2-methoxy-5-[2-(4-methoxyphenyl)ethyl]benzamido}-7-(2,2,2-trifluoroethylidene)bi-cyclo[2.2.1]heptane-2-carboxamide]
494 nM | COCCCc1ccc(OC)c(C(=O)NC2C3CCC(/C3=C/C(F)(F)F)[C@@H]2C(=O)Nc2ccc(F)c(C(F)(F)F)c2)c1 (stereo partly drawn) [Example 189, (2S,3R,7Z)-N-[4-fluoro-3-(trifluoromethyl)phe-nyl]-3-[2-methoxy-5-(3-methoxypropyl)benz-amido]-7-(2,2,2-trifluoroethylidene)bi-cyclo[2.2.1]heptane-2-carboxamide]
23 nM | COc1ccc(CCCCCC#N)cc1C(=O)NC1C2CCC(/C2=C/C2CCC2)[C@@H]1C(=O)Nc1ccc(F)c(C(F)(F)F)c1 (stereo partly drawn) [Example 190, (7Z)-3-[5-(5-cyanopentyl)-2-methoxybenzamido]-7-(cyclobutylmethyli-dene)-N-[4-fluoro-3-(trifluoromethyl)phe-nyl]bicyclo[2.2.1]hept-ane-2-carboxamide]
40 nM | COc1ccc(CCN2CCOC2=O)cc1C(=O)NC1C2CCC(/C2=C/C2CCC2)[C@@H]1C(=O)Nc1ccc(F)c(C(F)(F)F)c1 (stereo partly drawn) [Example 191, (7Z)-7-(cyclobutylmethyl-idene)-N-[4-fluoro-3-(trifluoromethyl)phe-nyl]-3-{2-methoxy-5-[2-(2-oxo-1,3-oxazolidin-3-yl)ethyl]benzamido} bicyclo[2.2.1]heptane-2-carboxamide]
33 nM | COc1ccc(CCCCCCC#N)cc1C(=O)NC1C2CCC(/C2=C/C2CCC2)[C@@H]1C(=O)Nc1ccc(F)c(C(F)(F)F)c1 (stereo partly drawn) [Example 192, (7Z)-3-[5-(6-cyanohexyl)-2-methoxybenzamido]-7-(cyclobutylmethyl-idene)-N-[4-fluoro-3-(trifluoromethyl)phe-nyl]bicyclo[2.2.1] heptane-2-carboxamide]
55 nM | COc1ccc(CCCCC(F)(F)F)cc1C(=O)NC1C2CCC(/C2=C/C2CCC2)[C@@H]1C(=O)Nc1ccc(F)c(C(F)(F)F)c1 (stereo partly drawn) [Example 193, (7Z)-7-(cyclobutylmethyli-dene)-N-[4-fluoro-3-(trifluoromethyl)phe-nyl]-3-[2-methoxy-5-(5,5,5-trifluoropentyl)benz-amido]bicyclo[2.2.1] heptane-2-carboxamide]
